Here are results for 2 molecules from patent publication US20040220268A1, “Compound that directly stimulates phospholipase C activity” (priority 2003, published 2004).

One assay concerns U937 cells. Kind of assay: Formation of inositol phosphates in cells (in vivo PLC activity). In kind it is cell-based, human. As for the experimental part: U937 Cells were labeled with myo-[^3H] inositol (1 μCi/10^6 cells) for 24 h at 37° C. and then treated with various concentrations of m-3M3FBS or o-3M3FBS. Total inositol phosphates were eluted with a solution containing 1 M ammonium formate and 0.1 M formic acid. Radioactivity of the [3H] inositol phosphates was determined by counting in a scintillation counter. Data are presented as means ±S. E. M. of five independent experiments.
Cells grown in culture were harvested by centrifugation, washed with inositol-free RPMI 1640 medium, and resuspended at a density of 2×10^6 cells/ml in the same medium. The cells were then labeled with myo-[^3H] inositol (1 μCi/10^6 cells) for 24 h at 37° C. and rinsed twice with inositol-free RPMI 1640 medium containing 0.5% fetal bovine serum, 20 mM of Hepes at pH 7.2, 20 mM of LiCl, and bovine serum albumin (1 mg/ml) and then resuspended at a density of 2×10^7 cells/ml. A portion (0.1 ml) of the cell suspension was transferred to a microcentrifuge tube and incubated at 37° C. for 15 min. PIP2 hydrolysis was initiated by adding chemicals or solvents for the indicated times. Reactions were terminated by adding 200 μl of ice-cold 10% perchloric acid (HClO4). […] The radioactivity of the [3H] inositol phosphates was determined using a scintillation counter (Tri-Packard, Meriden, Conn.).

The target of a further assay is T1, PLC γ1 (Homo sapiens, UniProt P19174).
T1 sequence (P19174 1-1290): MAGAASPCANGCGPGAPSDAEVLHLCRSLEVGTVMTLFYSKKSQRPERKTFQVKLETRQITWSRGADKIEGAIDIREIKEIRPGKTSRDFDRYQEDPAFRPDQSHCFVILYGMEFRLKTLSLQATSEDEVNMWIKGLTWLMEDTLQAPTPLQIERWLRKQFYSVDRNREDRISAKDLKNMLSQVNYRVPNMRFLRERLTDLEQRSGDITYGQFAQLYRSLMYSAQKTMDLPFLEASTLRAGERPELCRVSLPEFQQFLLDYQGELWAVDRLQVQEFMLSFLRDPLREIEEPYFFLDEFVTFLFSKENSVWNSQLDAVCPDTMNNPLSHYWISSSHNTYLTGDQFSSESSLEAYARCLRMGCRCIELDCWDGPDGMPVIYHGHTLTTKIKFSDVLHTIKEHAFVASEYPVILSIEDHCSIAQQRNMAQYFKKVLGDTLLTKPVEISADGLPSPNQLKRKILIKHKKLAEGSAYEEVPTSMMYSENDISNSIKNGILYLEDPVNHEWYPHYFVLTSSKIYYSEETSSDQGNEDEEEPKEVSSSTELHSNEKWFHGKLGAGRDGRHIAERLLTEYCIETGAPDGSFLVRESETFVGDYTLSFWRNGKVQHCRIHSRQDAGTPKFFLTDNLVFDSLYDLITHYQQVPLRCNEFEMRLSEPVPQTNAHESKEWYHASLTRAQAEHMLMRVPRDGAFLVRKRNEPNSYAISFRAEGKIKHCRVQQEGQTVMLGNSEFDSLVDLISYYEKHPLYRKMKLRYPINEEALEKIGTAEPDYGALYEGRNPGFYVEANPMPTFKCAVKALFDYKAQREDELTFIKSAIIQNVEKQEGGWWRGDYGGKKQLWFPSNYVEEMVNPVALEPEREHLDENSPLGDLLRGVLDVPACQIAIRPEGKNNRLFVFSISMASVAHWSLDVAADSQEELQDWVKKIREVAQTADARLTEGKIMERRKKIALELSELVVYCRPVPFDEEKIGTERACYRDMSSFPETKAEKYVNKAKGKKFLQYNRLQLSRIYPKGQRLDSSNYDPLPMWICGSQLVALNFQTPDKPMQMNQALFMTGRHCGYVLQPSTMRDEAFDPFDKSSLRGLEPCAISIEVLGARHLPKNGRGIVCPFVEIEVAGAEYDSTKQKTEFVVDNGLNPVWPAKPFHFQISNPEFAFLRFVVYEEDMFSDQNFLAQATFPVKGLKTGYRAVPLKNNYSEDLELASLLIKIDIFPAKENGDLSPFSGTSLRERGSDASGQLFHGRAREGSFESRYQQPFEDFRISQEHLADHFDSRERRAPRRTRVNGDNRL
Kind of assay: Phosphoinositide hydrolysis in vitro. The class given is biochemical. The note with it: 25 μM; purified isozyme. As for the experimental part: The hydrolyzing activity of PtdIns-4,5-P2 was measured on mixed phospholipid vesicles containing 120 μM phosphatidylethanolamine, 30 μM PtdIns-4,5-P2, and 1 μCi/ml [3H] PtdIns-4,5-P2. Purified PLC β2, substrates, and the chemicals (2.5, 5, 10, 20, and 25 μM of m-3M3FBS or of o-3M3FBS) were coincubated (A), 25 μM of m-3M3FBS or o-3M3FBS, and phospholipid substrates were mixed with purified PLC β3, γ1, 2, or δ1 (B). Reactions were performed for 10 min at 37° C. in a 200 μl reaction mixture containing lipid micelles (5 μM [^3H] PtdIns-4,5-P2, 20,000 cpm). Reactions were stopped by adding 1 ml of CHCl3:CH3OH:HCl (50:50:0.3, v/v/v). Inositol trisphosphates were extracted with 0.5 ml of 1 M HCl/5 mM EGTA, and the radioactivity in the upper aqueous phase was measured. Data are presented as means ±S. E. M. of three independent experiments (A, B).
PLC activity was assayed using [^3H] PtdIns-4,5-P2 as a substrate (Min et al., 1993). PtdIns-4,5-P2-hydrolyzing activity was measured with mixed phospholipid micelles containing 120 μM phosphatidylethanolamine, 30 μM PtdIns-4,5-P2, and 1 μCi/ml [^3H] PtdIns-4,5-P2. The lipids, in chloroform, were dried under a stream of nitrogen gas, suspended in assay buffer (20 mM HEPES pH 7.0, 120 mM NaCl, 2 mM MgCl2, 40 or 100 μM CaCl2, and 1 mg/ml bovine albumin serum (Bayer, Leverkusen, Germany)), and sonicated. All proteins added to the reaction mixture were dialyzed overnight against the assay buffer. Incubation was performed for 10 min at 37° C. in a 200 μl reaction mixture containing lipid micelles (5 μM [3H] PtdIns-4,5-P2, 20,000 cpm). The reaction was stopped by adding 2 ml of CHCl3: CH3OH: HCl (50: 50: 0.3, v/v/v). The inositol triphosphates were extracted with 0.5 ml of 1 N HCl, and radioactivities in the upper aqueous phase were measured.

Turning to `Cc1cc(C)c(S(=O)(=O)Nc2ccccc2C(F)(F)F)c(C)c1` [o-3M3FBS, 2,4,6-Trimethyl-N-(ortho 3-trifluoromethyl-phenyl)-benzenesulfonamide, reference compound], in the assay with U937 cells, the “effect on PLC activity (inositol phosphate formation)” value is listed as “no effect”. At PLC γ1, the “activity of PLC gamma1” value was “did not affect”.
Turning to `Cc1cc(C)c(S(=O)(=O)Nc2cccc(C(F)(F)F)c2)c(C)c1` [m-3M3FBS, 2,4,6-Trimethyl-N-(meta 3-trifluoromethyl-phenyl)-benzenesulfonamide], the “fold increase of accumulation of inositol phosphates” value in the assay on U937 cells (50 μM) turned out to be 2.5 fold. Also, at PLC γ1, the “activity of PLC gamma1” value is recorded as “augmented the activity”.
